Values of other authors, collected in US20120219529A1, “Silver ion compositions of pectins” (George H. Scherr Trust, priority 2011, published 2012).

For `[Ag+].[Ag+].[O-2]` [Ag2O], the “solubility in water” value is listed as “insoluble in water”.
